Patent publication US20100120788A1, “IDENTIFICATION OF POLYNUCLEOTIDES FOR […] OF COMPOUNDS THAT […] WITH AND/OR MODULATE PROTEIN TYROSINE KINASES AND/OR PROTEIN TYROSINE KINASE […] IN PROSTATE CELLS” (Bristol-Myers Squibb Company, priority 2007, published 2010)

Tests used:
[1] = test system: imatinib-resistant BCR-ABL mutants; conditions: number of mutants of those tested; cited from earlier work
[2] = test system: secreted uPA protein in PC3 cells; assay: uPA protein ELISA assay of culture medium; assay type: cell-based, human; conditions: different doses, 24 h, per 50,000 viable cells
Text: FIG. 3. PLAU gene expression and regulation by dasatinib analyzed at mRNA and protein levels. (A) Differential baseline expression of PLAU gene between resistant (R, in black) and sensitive (S, in red) cell lines. The X-values are the expression level in log2-scale. The resistant cell line expressing high level of PLAU was WPMY1 and the sensitive cell line expressing low level of PLAU was LNCaP. (B) Down-regulation of PLAU mRNA level by dasatinib-treatment in 5 sensitive cell lines. The cells were treated with 100 nM dasatinib (+D) or DMSO (Ctrl) for 48 hours. The p value was 0.048 in paired t-test, indicating a significant reduction of PLAU mRNA following dasatinib treatment. (C) Correlation between dasatinib-induced PLAU mRNA down-regulation with the sensitivity of cell lines to dasatinib. […] The amount of uPA protein secreted into the culture medium by 50,000 viable cells was assessed by ELISA assay. […]
Cell were seeded in 24-well plates at density of 25,000 cells/well. […] Total number of cells were also quantitated using a cell counter, and the number of viable cells were assessed with Trypan Blue. The amount of uPA protein in the supernatant was determined using the uPA ELISA kit (America Diagnostica, Stamford, Conn.), and the concentrations of uPA secreted by 50,000 viable cells into the medium were calculated.

| SMILES | imatinib-resistant BCR-ABL mutants against which significantly active [1] | amount of uPA protein secreted into the growth medium [2] |
| --- | --- | --- |
| Cc1cn(-c2cc(NC(=O)c3ccc(C)c(Nc4nccc(-c5cccnc5)n4)c3)cc(C(F)(F)F)c2)cn1 [AMN107] | 32/33 | – |
| CC(=O)O[C@H]1C(=O)[C@@]2(C)[C@H]([C@H](OC(=O)c3ccccc3)[C@]3(O)C[C@H](OC(=O)[C@H](O)[C@@H](NC(=O)c4ccccc4)c4ccccc4)C(C)=C1C3(C)C)[C@]1(OC(C)=O)CO[C@@H]1C[C@@H]2O [TAXOL®] | – | did not see a dose-dependent reduction |
